Like-named read-outs stand apart in the source and are kept apart here.
Tested on: caudate lesioned mouse
Experiment: caudate lesioned mouse test (anti-parkinson activity)
Format: in vivo
Details: Mus musculus
Summary of the method: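 Mice with unilateral caudate lesions, recovered ≥14 days, kept only if circling toward lesion in all three periods after apomorphine 1.7 mg/kg i.p. Test drugs given in 1% gum tragacanth; doses as mg/kg free base.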

[1] = 0.5 h, dose 0.208 m. mole/kg, 1/2 h post-drug, read-out: No. Mice Affected/No. Mice Tested, 1/2 h (converted)
[2] = 0.5 h, dose 0.416 m. mole/kg, 1/2 h post-drug, read-out: No. Mice Affected/No. Mice Tested, 1/2 h (converted)
[3] = dose 0.208 m. mole/kg, 1 h post-drug, read-out: No. Mice Affected/No. Mice Tested, 1 h
[4] = dose 0.208 m. mole/kg, 4 h post-drug, read-out: No. Mice Affected/No. Mice Tested, 4 h (converted)
[5] = dose 0.208 m. mole/kg, 6 h post-drug, read-out: No. Mice Affected/No. Mice Tested, 6 h (converted)
[6] = dose 0.208 m. mole/kg, 24 h post-drug, read-out: No. Mice Affected/No. Mice Tested, 24 h (converted)
[7] = dose 0.208 m. mole/kg, total, read-out: No. Mice Affected/No. Mice Tested, Total (converted)
[8] = dose 0.416 m. mole/kg, 1 h post-drug, read-out: No. Mice Affected/No. Mice Tested, 1 h (converted)
[9] = dose 0.416 m. mole/kg, 4 h post-drug, read-out: No. Mice Affected/No. Mice Tested, 4 h (converted)
[10] = dose 0.416 m. mole/kg, 6 h post-drug, read-out: No. Mice Affected/No. Mice Tested, 6 h (converted)
[11] = dose 0.416 m. mole/kg, 24 h post-drug, read-out: No. Mice Affected/No. Mice Tested, 24 h
[12] = dose 0.416 m. mole/kg, total, read-out: No. Mice Affected/No. Mice Tested, Total (converted)
[13] = 0.5 h, read-out: No. Mice Affected/No. Mice Tested, 1/2 h
[14] = 1 h, read-out: No. Mice Affected/No. Mice Tested, 1 h
[15] = 4 h, read-out: No. Mice Affected/No. Mice Tested, 4 h
[16] = 6 h, read-out: No. Mice Affected/No. Mice Tested, 6 h
[17] = 24 h, read-out: No. Mice Affected/No. Mice Tested, 24 h
[18] = read-out: No. Mice Affected/No. Mice Tested, Total

## CN1CCc2cccc3c2C1Cc1ccc(OC(=O)C(C)(C)C)c(OC(=O)C(C)(C)C)c1-3 (stereo not drawn) [Ref. 1C, reference compound]
[1]
  responders at 208 µmol/kg: 0%
[2]
  responders at 416 µmol/kg: 0%
[3]
  responders at 208 µmol/kg: 0%
[4]
  responders at 208 µmol/kg: 0%
[5]
  responders at 208 µmol/kg: 0%
[6]
  responders at 208 µmol/kg: 0%
[7]
  responders at 208 µmol/kg: 0%
[8]
  responders at 416 µmol/kg: 33.3%
[9]
  responders at 416 µmol/kg: 66.7%
[10]
  responders at 416 µmol/kg: 66.7%
[11]
  responders at 416 µmol/kg: 0%
[12]
  responders at 416 µmol/kg: 66.7%

## CCCCCCCCCCCCCCCC(=O)Oc1ccc2c(c1OC(=O)CCCCCCCCCCCCCCC)-c1cccc3c1C(C2)N(C)CC3 (stereo not drawn) [Ref. 1D, reference compound]
[1]
  responders at 208 µmol/kg: 0%
[2]
  responders at 416 µmol/kg: 0%
[3]
  responders at 208 µmol/kg: 0%
[4]
  responders at 208 µmol/kg: 0%
[5]
  responders at 208 µmol/kg: 0%
[6]
  responders at 208 µmol/kg: 0%
[7]
  responders at 208 µmol/kg: 0%
[8]
  responders at 416 µmol/kg: 0%
[9]
  responders at 416 µmol/kg: 0%
[10]
  responders at 416 µmol/kg: 0%
[11]
  responders at 416 µmol/kg: 0%
[12]
  responders at 416 µmol/kg: 0%

## CN1CCc2cccc3c2C1Cc1ccc(OC(=O)c2ccccc2)c(OC(=O)c2ccccc2)c1-3 (stereo not drawn) [Ref. 1E, reference compound]
[2]
  responders at 416 µmol/kg: 0%
[8]
  responders at 416 µmol/kg: 0%
[9]
  responders at 416 µmol/kg: 0%
[10]
  responders at 416 µmol/kg: 0%
[11]
  responders at 416 µmol/kg: 0%
[12]
  responders at 416 µmol/kg: 0%

## CN1CCc2cccc3c2C1Cc1ccc(OC(=O)c2ccc(Cl)cc2)c(OC(=O)c2ccc(Cl)cc2)c1-3 (stereo not drawn) [Ref. 1F, reference compound]
[2]
  responders at 416 µmol/kg: 0%
[8]
  responders at 416 µmol/kg: 0%
[9]
  responders at 416 µmol/kg: 0%
[10]
  responders at 416 µmol/kg: 0%
[11]
  responders at 416 µmol/kg: 0%
[12]
  responders at 416 µmol/kg: 0%

## CC(=O)Oc1ccc2c(c1OC(C)=O)-c1cccc3c1C(C2)N(C)CC3 (stereo not drawn) [Ref. 2, reference compound]
[13]
  responders at 208 µmol/kg: 0%
  responders at 416 µmol/kg: 25%
[14]
  responders at 208 µmol/kg: 0%
  responders at 416 µmol/kg: 50%
[15]
  responders at 208 µmol/kg: 0%
  responders at 416 µmol/kg: 75%
[16]
  responders at 208 µmol/kg: 0%
  responders at 416 µmol/kg: 75%
[17]
  responders at 208 µmol/kg: 25%
  responders at 416 µmol/kg: 25%
[18]
  responders at 208 µmol/kg: 25%
  responders at 416 µmol/kg: 75%

## CCCCC(=O)Oc1ccc2c(c1OC(=O)CCCC)-c1cccc3c1C(C2)N(C)CC3 (stereo not drawn) [Ref. 2A, reference compound]
[1]
  responders at 208 µmol/kg: 0%
[2]
  responders at 416 µmol/kg: 33.3%
[3]
  responders at 208 µmol/kg: 0%
[4]
  responders at 208 µmol/kg: 0%
[5]
  responders at 208 µmol/kg: 0%
[6]
  responders at 208 µmol/kg: 0%
[7]
  responders at 208 µmol/kg: 0%
[8]
  responders at 416 µmol/kg: 0%
[9]
  responders at 416 µmol/kg: 0%
[10]
  responders at 416 µmol/kg: 0%
[11]
  responders at 416 µmol/kg: 0%
[12]
  responders at 416 µmol/kg: 33.3%
